In patent US20250003877A1, “Silyl Bridged Dyes” (priority 2021, published 2025):
Where two headings read alike, the source gives them in different places.

Settings: for ϕ (quantum yield): pH 7.4
[1] = spirolactone dyes, table title says PBS, text (b560-b564) says maximal ε when ring-opened in EtOH/0.1% TFA

Row | SMILES | Em (nm) (PBS) | Ex (nm) (PBS) | ϕ (quantum yield) (PBS) | ε (M^−1 cm^−1) [1] | Brightness (ϕ × ε) (PBS) | ε (M^−1 cm^−1) (PBS) | quantum yield (EtOH/0.1% TFA, mix of two isomers) | extinction coefficient (measured in PBS, mix of two isomers) | emission (mix of two isomers) [nm] | excitation wavelength (mix of two isomers) [nm] | red-shift compared to dimethylsilyl counterpart (vs 001 (for 007) or vs 020 (for 021, 022), excitation and emission) | quantum yield (pH 3 acetate buffer)
1 | CN(C)c1ccc2c(c1)[Si@](C)(CCCI)c1cc(N(C)C)ccc1[C@@]21OC(=O)c2ccccc21 [Compound 048, (5r,10r)-3,7-Bis(dimethylamino)-5-(3-iodopropyl)-5-methyl-3′H,5H-spiro[dibenzo[b,e]siline-10,1′-isobenzofuran]-3′-one] | 665 | 645 | 0.45 | 144,000 M^−1 cm^−1 |  |  |  |  |  |  |  | 
2 | Cc1ccccc1C1=C2C=CC(=[N+](C)C)C=C2[Si](C)([C@H]2CC3C=CC2C3)c2cc(N(C)C)ccc21 (stereo partly drawn) [Compound 013, N-(5-((2S)-Bicyclo[2.2.1]hept-5-en-2-yl)-7-(dimethylamino)-5-methyl-10-(o-tolyl)dibenzo[b,e]silin-3(5H)-ylidene)-N-methylmethanaminium] | 666 | 649 | 0.38 |  | 60,800 | 160,000 M^−1 cm^−1 |  |  |  |  |  | 
3 | Cc1ccccc1C1=C2C=CC(=[N+]3CCC3)C=C2[Si](c2ccccc2)(c2ccccc2)c2cc(N3CCC3)ccc21 [Compound 025, 1-(7-(Azetidin-1-yl)-5,5-diphenyl-10-(o-tolyl)dibenzo[b,e]silin-3(5H)-ylidene)azetidin-1-ium] | 680 | 663 | 0.41 |  | 63,222 | 154,200 M^−1 cm^−1 |  |  |  |  |  | 
4 | COc1cccc(OC)c1C1=C2C=CC(=[N+]3CCC3)C=C2[Si](C)(CCCCl)c2cc(N3CCC3)ccc21 (centres unmarked) [Compound 029, 1-(7-(Azetidin-1-yl)-5-(3-chloropropyl)-10-(2,6-dimethoxyphenyl)-5-methyldibenzo[b,e]silin-3(5H)-ylidene)azetidin-1-ium] | 670 | 653 | 0.48 |  | 86,400 | 180,000 M^−1 cm^−1 |  |  |  |  |  | 
5 | Cc1ccccc1C1=C2C=CC(=[N+]3CCC3)C=C2[Si](C)(CCCCl)c2cc(N3CCC3)ccc21 (centres unmarked) [Compound 027, 1-(7-(Azetidin-1-yl)-5-(3-chloropropyl)-5-methyl-10-(o-tolyl)dibenzo[b,e]silin-3(5H)-ylidene)azetidin-1-ium] | 668 | 651 | 0.49 |  | 81,683 | 166,700 M^−1 cm^−1 | 0.61 | ~4,000 | 670 | 653 |  | 
6 | CN(C)c1ccc2c(c1)[Si@](C)(CCCSCC(=O)O)c1cc(N(C)C)ccc1[C@]21OC(=O)c2ccccc21 [Compound 063, 2-((3-((5s,10s)-3,7-Bis(dimethylamino)-5-methyl-3′-oxo-3′H,5H-spiro[dibenzo[b,e]siline-10,1′-isobenzofuran]-5-yl)propyl)thio)acetic acid] | 665 | 645 | 0.45 | 180,600 M^−1 cm^−1 |  |  |  |  |  |  |  | 
7 | Cc1ccccc1C1=C2C=CC(=[N+](C)C)C=C2[Si](c2ccccc2)(c2ccccc2)c2cc(N(C)C)ccc21 [Compound 007, N-(7-(Dimethylamino)-5,5-diphenyl-10-(o-tolyl)dibenzo[b,e]silin-3(5H)-ylidene)-N-methylmethanaminium] | 677 | 663 | 0.35 |  | 41,952 | 120,900 M^−1 cm^−1 |  |  |  |  | approximately 15 nm | 
8 | CN(C)c1ccc2c(c1)[Si@](C)(CCCN=[N+]=[N-])c1cc(N(C)C)ccc1[C@]21OC(=O)c2ccccc21 [Compound 053, (5s,10s)-5-(3-Azidopropyl)-3,7-bis(dimethylamino)-5-methyl-3′H,5H-spiro[dibenzo[b,e]siline-10,1′-isobenzofuran]-3′-one] | 666 | 645 | 0.43 | 206,700 M^−1 cm^−1 |  |  |  |  |  |  |  | 
9 | C[Si@]1(CCCCl)c2cc(N3CCC3)ccc2[C@]2(OC(=O)c3ccccc32)c2ccc(N3CCC3)cc21 [Compound 036, (5r,10r)-3,7-Di(azetidin-1-yl)-5-(3-chloropropyl)-5-methyl-3′H,5H-spiro[dibenzo[b,e]siline-10,1′-isobenzofuran]-3′-one] | 666 | 648 | 0.53 | 213,200 M^−1 cm^−1 |  |  |  |  |  |  |  | 
10 | C[Si@]1(CCCCl)c2cc(N3CCC3)ccc2[C@@]2(OC(=O)c3ccccc32)c2ccc(N3CCC3)cc21 [Compound 035, (5s,10s)-3,7-Di(azetidin-1-yl)-5-(3-chloropropyl)-5-methyl-3′H,5H-spiro[dibenzo[b,e]siline-10,1′-isobenzofuran]-3′-one] | 666 | 648 |  | 183,000 M^−1 cm^−1 |  |  |  |  |  |  |  | 
11 | Cc1ccccc1C1=C2C=CC(=[N+](C)C)C=C2[Si](C)(c2cccc(N(C)C)c2)c2cc(N(C)C)ccc21 (centres unmarked) [Compound 008, N-(7-(Dimethylamino)-5-(3-(dimethylamino)phenyl)-5-methyl-10-(o-tolyl)dibenzo[b,e]silin-3(5H)-ylidene)-N-methylmethanaminium] | 668 | 651 | 0.02 |  | 3700 | 154,200 M^−1 cm^−1 |  |  |  |  |  | 0.31
12 | Cc1ccccc1C1=c2cc3c(cc2[Si](c2ccccc2)(c2ccccc2)c2cc4c(cc21)CCN4C)=[N+](C)CC3 [Compound 022, 1,9-Dimethyl-11,11-diphenyl-5-(o-tolyl)-2,3,7,8,9,11-hexahydrosilino[3,2-f:5,6-f′]diindol-1-ium] | 737 | 710 | 0.11 |  | 12,870 | 117,000 M^−1 cm^−1 |  |  |  |  |  | 
13 | CN(C)c1ccc2c(c1)[Si@](C)(CCCSCC(=O)O)c1cc(N(C)C)ccc1[C@@]21OC(=O)c2ccccc21 [Compound 064, 2-((3-((5r,10r)-3,7-Bis(dimethylamino)-5-methyl-3′-oxo-3′H,5H-spiro[dibenzo[b,e]siline-10,1′-isobenzofuran]-5-yl)propyl)thio)acetic acid] | 665 | 645 | 0.45 | 160,400 M^−1 cm^−1 |  |  |  |  |  |  |  | 
14 | Cc1ccccc1C1=C2C=CC(=[N+]3CCC3)C=C2[Si](C)(C)c2cc(N3CCC3)ccc21 [Compound 024, 1-(7-(Azetidin-l-yl)-5,5-dimethyl-10-(o-tolyl)dibenzo[b,e]silin-3(5H)-ylidene)azetidin-1-ium, reference compound] | 663 | 649 | 0.47 |  | 55,460 | 118,000 M^−1 cm^−1 |  |  |  |  |  | 
15 | C=C[Si]1(C)C2=CC(=[N+](C)C)C=CC2=C(c2ccccc2C)c2ccc(N(C)C)cc21 (centres unmarked) [Compound 003, N-(7-(Dimethylamino)-5-methyl-10-(o-tolyl)-5-vinyldibenzo[b,e]silin-3(5H)-ylidene)-N-methylmethanaminium] | 668 | 651 | 0.35 |  | 48,924 | 141,400 M^−1 cm^−1 |  |  |  |  |  | 
